These results are taken from patent publication US20200181104A1, “SSAO INHIBITORS AND USES THEREOF” (METACRINE, INC., priority 2018, published 2020).

Molecules are shown by their SMILES. Counter-ions that a name gives are not always drawn.

The target of the assay is T1, Recombinant Human SSAO/VAP-1/AOC3 (Homo sapiens, UniProt Q16853).
T1 construct: purchased R&D systems 3957-AO
T1 sequence (Q16853 1-763): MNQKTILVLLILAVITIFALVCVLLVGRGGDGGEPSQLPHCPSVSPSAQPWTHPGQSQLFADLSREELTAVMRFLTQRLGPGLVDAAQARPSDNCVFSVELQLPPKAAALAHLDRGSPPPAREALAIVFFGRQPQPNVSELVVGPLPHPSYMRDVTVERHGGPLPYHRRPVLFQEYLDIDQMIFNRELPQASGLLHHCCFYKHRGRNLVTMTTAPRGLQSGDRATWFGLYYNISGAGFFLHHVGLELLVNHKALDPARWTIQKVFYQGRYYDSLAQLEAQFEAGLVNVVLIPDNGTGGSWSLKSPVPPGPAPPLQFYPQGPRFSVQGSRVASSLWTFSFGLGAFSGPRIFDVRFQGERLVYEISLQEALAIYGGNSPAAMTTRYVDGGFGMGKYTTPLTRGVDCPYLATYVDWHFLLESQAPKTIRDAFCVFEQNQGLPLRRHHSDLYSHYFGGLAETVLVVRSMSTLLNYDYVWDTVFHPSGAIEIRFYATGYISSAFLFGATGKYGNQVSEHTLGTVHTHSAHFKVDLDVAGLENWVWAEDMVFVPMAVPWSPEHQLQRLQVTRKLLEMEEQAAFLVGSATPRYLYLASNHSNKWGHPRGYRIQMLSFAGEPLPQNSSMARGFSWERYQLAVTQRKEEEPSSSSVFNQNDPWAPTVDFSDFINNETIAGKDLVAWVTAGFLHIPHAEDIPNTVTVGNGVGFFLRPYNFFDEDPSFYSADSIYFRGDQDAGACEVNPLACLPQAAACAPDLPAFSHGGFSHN
In words: Human Semicarbazide-Sensitive Amine Oxidase (SSAO) Assay. It is filed as biochemical. The following applies: recombinant enzyme, 30 minutes preincubation at 37° C., benzylamine substrate, Amplex Ultra Red/HRP fluorescence. The protocol: Compounds were dissolved in DMSO to provide a Concentration Response Curve (CRC; at 500 times the final concentration) over a range of 6-10 dilutions.
Recombinant Human SSAO/VAP-1/AOC3 (R&D systems; Catalog #3957-AO) was used to screen compound potency in vitro, according to previously described methods (J Pharmacol Exp Ther. 2013 November; 347(2):365-74). SSAO enzyme was suspended in 50 mM HEPES buffer to a working concentration of 2.5 μg/ml and 40 μL of this enzyme mixture was then added to each well of a F16 Black Maxisorp 96 well Plate (Nunc, Catalog #475515). Ten microliters of each test compound (at 5 times the final concentration) were added to each well, resulting in a final well volume of 50 μL of the enzyme and inhibitor mixture. The compounds were preincubated with the enzyme for 30 minutes at 37° C., prior to the addition of a 40 μL volume of Amplex Ultra Red (125 uM AUR; Molecular Probes, Catalog # A36006)/Horseradish peroxidase (2.5 U/ml HRP; Sigma-Aldrich Catalog # P8375) oxidase detection reagent containing cytochrome C ([…]; Sigma-Aldrich Catalog # C7752). Cytochrome C was included in the AUR/HRP detection mixture to reduce the background fluorescence that can occur via the spontaneous redox reaction between AUR and HRP. The SSAO enzyme reaction was then initiated by adding 10 μL of the SSAO substrate, benzylamine (Sigma-Aldrich Catalog # B5136), and SSAO activity was measured in kinetic mode over a 30-120 minute sampling period (excit. 544 nm; emit 590 nm; cut off 570 nm; medium gain) to obtain IC50 values for enzyme activity in each treatment well.
With `CO[C@H](C)CNC(=O)C12CCC(c3ccc(OC/C(=C/F)CN)cc3)(CC1)CC2` [Compound 2.123, (R,E)-4-(4-((2-(aminomethyl)-3-3-fluoroallyl)oxy)phenyl)-N-(2-methoxypropyl)bicyclo[2.2.2] octane-1-carboxamide], the half-maximal inhibitory concentration (IC50) was ≤ 10 nM.
Take `CC1(C)CC(NC(=O)C23CCC(c4ccc(OC/C(=C/F)CN)cc4)(CC2)CC3)CC(C)(C)O1` [Compound 2.105, (E)-4-(4-((2-(aminomethyl)-3-fluoroallyl)oxy)phenyl)-N-(2,2,6,6-tetramethyltetrahydro-2H-pyran-4-yl)bicyclo[2.2.2]octane-1-carboxamide]: the IC50 was ≤ 10 nM.
The figure for `CC(C)(O)CNC(=O)C12CCC(c3ccc(OC/C(=C/F)CN)cc3)(CC1)CC2` [Compound 2.48, (E)-4-(4-((2-(aminomethyl)-3-fluoroallyl)oxy)phenyl)-N-(2-hydroxy-2-methylpropyl)bicyclo[2.2.2] octane-1-carboxamide] is ≤ 10 nM; for `CO[C@@H]1CCCN(C(=O)C23CCC(c4ccc(OC/C(=C/F)CN)cc4)(CC2)CC3)C1` [Compound 2.111, (R,E)-(4-(4-((2-(aminomethyl)-3-fluoroallyl)oxy)phenyl)bicyclo [2.2.2]octan-1-yl)(3-methoxypiperidin-1-yl)methanone] it is ≤ 10 nM; for `NC/C(=C\F)COc1ccc(C2(C(N)=O)CCCCC2)cc1` [Compound 1, (E)-1-(4-((2-(Aminomethyl)-3-fluoroallyl)oxy)phenyl)cyclohexanecarboxamide Hydrochloride] it is ≤ 10 nM.
In the case of `NC/C(=C\F)COc1ccc(C23CCC(C(=O)NC4(CO)CC4)(CC2)CC3)cc1` [Compound 2.73, (E)-4-(4-((2-(aminomethyl)-3-fluoroallyl)oxy)phenyl)-N-(1-(hydroxymethyl)cyclopropyl) bicyclo[2.2.2]octane-1-carboxamide] it was ≤ 10 nM.
In the case of `COC1(CNC(=O)C23CCC(c4ccc(OC/C(=C/F)CN)cc4)(CC2)CC3)CCC1` [Compound 2.92, (E)-4-(4-((2-(aminomethyl)-3-fluoroallyl)oxy)phenyl)-N-((1-methoxycyclobutyl)methyl) bicyclo[2.2.2]octane-1-carboxamide], the IC50 is ≤ 10 nM.
As to `NC/C(=C\F)COc1ccc(C23CCC(C(N)=O)(CC2)CC3)cc1` [Compound 2.10, (E)-4-(4-((2-(aminomethyl)-3-fluoroallyl)oxy)phenyl) bicyclo[2.2.2]octane-1-carboxamide], the IC50 was ≤ 10 nM.
For the compound `COc1cc(CNC(=O)C23CCC(c4ccc(OC/C(=C/F)CN)cc4)(CC2)CC3)ccn1` [Compound 2.134, (E)-4-(4-((2-(aminomethyl)-3-fluoroallyl)oxy)phenyl)-N-((2-methoxpyridin-4-yl)methyl)bicyclo[2.2.2]octane-1-carboxamide], the IC50 was ≤ 10 nM.
As to `NC/C(=C\F)COc1ccc(C23CCC(C(=O)NCC4CCOCC4)(CC2)CC3)cc1` [Compound 2.20], the IC50 was ≤ 10 nM.
The figure for `NC/C(=C\F)COc1ccc(C23CCC(C(=O)NCc4cnccn4)(CC2)CC3)cc1` [Compound 2.129, (E)-4-(4-((2-(aminomethyl)-3-fluoroallyl)oxy)phenyl)-N-(pyrazin-2-ylmethyl)bicyclo[2.2.2]octane-1-carboxamide] is ≤ 10 nM; for `NC/C(=C\F)COc1ccc(C23CCC(C(=O)N4CC5(CCOCC5)C4)(CC2)CC3)cc1` [Compound 2.82, (E)-(4-(4-((2-(Aminomethyl)-3-fluoroallyl)oxy)phenyl)bicyclo[2.2.2]octan-1-yl)(7-oxa-2-azaspiro[3.5]nonan-2-yl)methanone Hydrochloride] it is ≤ 10 nM; for `NC/C(=C\F)COc1ccc(C23CCC(OCC(=O)NC4CCOCC4)(CC2)CC3)cc1` [Compound 8.01, (E)-2-((4-(4-((2-(aminomethyl)-3-fluoroallyl)oxy)phenyl)bicyclo [2.2.2]octan-1-yl)oxy)-N-(tetrahydro-2H-pyran-4-yl)acetamide] it is ≤ 10 nM.
In the case of `COc1ccc(CNC(=O)C23CCC(c4ccc(OC/C(=C/F)CN)cc4)(CC2)CC3)cc1` [Compound 2.118, (E)-4-(4-((2-(aminomethyl)-3-fluoroallyl)oxy)phenyl)-N-(4-methoxybenzyl)bicyclo[2.2.2] octane-1-carboxamide] it was ≤ 10 nM; in that of `COCCN(C)C(=O)C12CCC(c3ccc(OC/C(=C/F)CN)cc3)(CC1)CC2` [Compound 2.79, (E)-4-(4-((2-(aminomethyl)-3-fluoroallyl)oxy)phenyl)-N-(2-methoxyethyl)-N-methylbicyclo[2.2.2]octane-1-carboxamide], ≤ 10 nM; in that of `CN(C)C(=O)CCNC(=O)C12CCC(c3ccc(OC/C(=C/F)CN)cc3)(CC1)CC2` [Compound 2.37, (E)-4-(4-((2-(aminomethyl)-3-fluoroallyl)oxy)phenyl)-N-(3-(dimethylamino)-3-oxopropyl)bicyclo[2.2.2]octane-1-carboxamide], ≤ 10 nM.
In the case of `CNC(=O)COC12CCC(c3ccc(OC/C(=C/F)CN)cc3)(CC1)CC2` [Compound 8, (E)-2-((4-(4-((2-(aminomethyl)-3-fluoroallyl)oxy)phenyl)bicyclo[2.2.2]octan-1-yl)oxy)-N-methylacetamide], the half-maximal inhibitory concentration (IC50) was ≤ 10 nM.
As to `CC1(C)CN(C(=O)C23CCC(c4ccc(OC/C(=C/F)CN)cc4)(CC2)CC3)C1` [Compound 2.52, (E)-(4-(4-((2-(aminomethyl)-3-fluoroallyl)oxy)phenyl)bicyclo [2.2.2]octan-1-yl)(3,3-dimethylazetidin-1-yl)methanone], the half-maximal inhibitory concentration (IC50) was ≤ 10 nM.
Take `CC(NC(=O)C12CCC(c3ccc(OC/C(=C/F)CN)cc3)(CC1)CC2)C1CCOCC1` (stereo not shown) [Compound 2.19, (E)-4-(4-((2-(amino-methyl)-3-fluoroallyl)oxy)phenyl)-N-(1-(tetrahydro-2H-pyran-4-yl)ethyl)bicyclo[2.2.2] octane-1-carboxamide]: the IC50 is ≤ 10 nM.
The figure for `COc1ccc(CNC(=O)C23CCC(c4ccc(OC/C(=C/F)CN)cc4)(CC2)CC3)cn1` [Compound 2.141, (E)-4-(4-((2-(aminomethyl)-3-fluoroallyl)oxy)phenyl)-N-((6-methoxpyridin-3-yl)methyl)bicyclo[2.2.2]octane-1-carboxamide] is ≤ 10 nM.
For the compound `NC/C(=C\F)COc1ccc(C23CCC(C(=O)NC45CCC(O)(CC4)CC5)(CC2)CC3)cc1` [Compound 2.58, (E)-4-(4-((2-(aminomethyl)-3-fluoroallyl)oxy)phenyl)-N-(4-hydroxybicyclo[2.2.2]octan-1-yl)bicyclo[2.2.2]octane-1-carboxamide], the concentration for half-maximal inhibition (IC50) was ≤ 10 nM.
For the compound `CC1(C)CC(NC(=O)C23CCC(c4ccc(OC/C(=C/F)CN)cc4)(CC2)CC3)CCO1` (stereo not shown) [Compound 2.42, (E)-4-(4-((2-(aminomethyl)-3-fluoroallyl)oxy)phenyl)-N-(2,2-dimethyltetrahydro-2H-pyran-4-yl)bicyclo[2.2.2]octane-1-carboxamide], the concentration for half-maximal inhibition (IC50) was ≤ 10 nM.
In the case of `NC/C(=C\F)COc1ccc(C23CCC(C(=O)NC4CCC(F)(F)CC4)(CC2)CC3)cc1` [Compound 2.46, (E)-4-(4-((2-(aminomethyl)-3-fluoroallyl)oxy)phenyl)-N-(4,4-difluorocyclohexyl)bicyclo [2.2.2]octane-1-carboxamide] it was ≤ 10 nM; in that of `CC1(NC(=O)C23CCC(c4ccc(OC/C(=C/F)CN)cc4)(CC2)CC3)CCOCC1` [Compound 2.18, (E)-4-(4-((2-(amino-methyl)-3-fluoroallyl)oxy)phenyl)-N-(4-methyltetrahydro-2H-pyran-4-yl)bicyclo [2.2.2]octane-1-carboxamide], ≤ 10 nM; in that of `CNC(=O)[C@H]1C2CC3CC1C[C@](c1ccc(OC/C(=C/F)CN)cc1)(C3)C2` (single isomer, unassigned) [Compound 6.01, syn-5-(4-(((E)-2-(Aminomethyl)-3-fluoroallyl)oxy)phenyl)-N-methyladamantane-2-carboxamide Hydrochloride], ≤ 10 nM.
